Source: US20210332005A1, “CH-ACIDIC M[…] FOR THE PREPARATION OF AQUEOUS POLYMER DISPERSIONS” (EVONIK OPERATIONS GMBH, priority 2018, published 2021)

Experiment: Solubility of the product in water (stirred with water, aqueous phase analysed by HPLC)
Type: physicochemical
Settings: for content of the product in the aqueous phase (solubility in water): HPLC; for water-solubility, overall rating in words: summary statement
Experimental: The solubility of the product in water was determined as follows:
The product was stirred with water for three days at room temperature and the composition of the aqueous phase obtained in this way was determined using HPLC. The aqueous phase contained 6.7 wt % of the product.
A further sample of the product was stirred with water for three hours at 80° C. and cooled back to room temperature. The composition of the aqueous phase obtained in this way was subsequently determined using HPLC. The aqueous phase contained more than 10 wt % of the product.
The product was stirred with water for two days at room temperature and the composition of the aqueous phase obtained in this way was determined using HPLC. The aqueous phase contained 6.2 wt % of the product.
A further sample of the product was stirred with water for one hour at 60° C. and cooled back to room temperature. The composition of the aqueous phase obtained in this way was subsequently determined using HPLC. The aqueous phase contained 8.1 wt % of the product.
The product was stirred with water for three days at room temperature and the composition of the aqueous phase obtained in this way was determined using HPLC.
A further sample of the product was stirred with water for three hours at 80° C. and cooled to room temperature. The composition of the aqueous phase obtained in this way was subsequently determined using HPLC.

[1] = stirred with water for three days at room temperature
[2] = stirred with water for three hours at 80° C. and cooled back to room temperature

SMILES | content of the product in the aqueous phase (solubility in water) [1] | content of the product in the aqueous phase (solubility in water) [2] | water-solubility, overall rating in words | content of the product in the aqueous phase (solubility in water) (stirred with water for one hour at 60° C. and cooled back to room temperature) | content of the product in the aqueous phase (solubility in water) (stirred with water for two days at room temperature)
C=C(C)C(=O)NCCCCCCNC(=O)CC#N [Comparative Example 3, N-(2-cyanoethylamidohexyl)methacrylamide, reference compound] | virtually insoluble in water | virtually insoluble in water | very low water-solubility |  | 
C=C(C)C(=O)NCCNC(=O)CC#N [Example 3, N-(2-cyanoethylamidoethyl)methacrylamide] | 6.7 wt % | more than 10 wt % | high water-solubility |  | 
C=C(C)C(=O)NCCCCNC(=O)CC#N [Example 5, N-(2-cyanoethylamidobutyl)methacrylamide] |  |  | high water-solubility | 8.1 wt % | 6.2 wt %
